Laboratory results published in patent US8859549B2, “Potassium channel modulators” (AbbVie, Inc., priority 2011, dated 2014).

Target: T1, KCNQ 2/3 channels (Homo sapiens, UniProt O43525+O43526)
T1 construct: expressed in transfected cells; host or cells: HEK293
Assay: KCNQ 2/3 channel activation, thallium flux FLIPR assay (BTC-AM dye)
Assay type: cell-based
Details: for Emax: HEK293, maximum response relative to the response of 10 μM retigabine (set at 100%), read-out: % MAX; for EC50: HEK293 cells stably expressing human KCNQ2 and KCNQ3 subunits, thallium-induced fluorescence, 4 min compound incubation
Experimental: The following example describes the assay that can be used to identify compounds that activate KCNQ 2/3 channels.
HEK293 cells stably expressing human KCNQ2 and KCNQ3 subunits were seeded in 96-well, black-walled, clear-bottomed, poly-D-lysine coated plates (BD Biosciences, Bedford, Mass.) at a density of 1×10^5 cells per well 24 hours before the assay. On the assay day, BTC-AM dye (Invitrogen, Carlsbad, Calif.) was loaded into the cells by replacing the cell culture medium with 55 μL/well of 3 μg/mL dye in DPBS. Dye loading was allowed to proceed for 2 hours at room temperature and then cells were washed twice with 50 μL/well of assay buffer (in mM: 10 HEPES pH 7.3, 5 glucose, 140 Na-gluconate, 2.5 K-gluconate, 3.6 Ca-gluconate, 2 MgSO4, 0.1 Ouabain) to remove unloaded dye. Cells were incubated in 50 μL of assay buffer before loading onto a FLIPR system (Molecular Devices, Sunnyvale, Calif.). Various concentrations of compounds to be assayed were added to the cells in 50 μL of assay buffer and incubated for 4 minutes. The fluorescence signal was initiated by adding 100 μL of assay buffer containing 6 mM TlNO3 and 10 mM K2SO4. Fluors were excited using the 488-nm line of an argon laser and emission was filtered using a 540±30 nm bandpass filter. Fluorescent signals were recorded for 3 minutes. Sums of the responses over basal responses were plotted versus concentrations of test compounds to obtain an EC50 value. The maximum response for each test compound was determined relative to the response produced by 10 μM retigabine. The maximum response of retigabine at 10 μM was set at 100%.

Emax (HEK293 KCNQ2/KCNQ3 cells)	EC50	% MAX (maximum response relative to the response of 10 μM retigabine (set at 100%), HEK293 KCNQ2/KCNQ3 cells)	SMILES
142%	331 nM	–	O=C(CC1CC2CCC1C2)Nn1nc(N2CCOCC2)c2ccccc2c1=O (racemic) [Example 3, (±)-2-[(exo)-bicyclo[2.2.1]hept-2-yl]-N-[4-(morpholin-4-yl)-1-oxophthalazin-2(1H)-yl]acetamide]
133%	60.6 nM	–	O=C(CC1CC2CCC1C2)Nn1nc(-c2ccc(Cl)nc2)c2ccccc2c1=O (racemic) [Example 4, (±)-2-[(exo)-bicyclo[2.2.1]hept-2-yl]-N-[4-(6-chloropyridin-3-yl)-1-oxophthalazin-2(1H)-yl]acetamide]
140%	515 nM	–	O=C(CC1CC2CCC1C2)Nn1nc(C2=CCOCC2)c2ccccc2c1=O (racemic) [Example 6, (±)-2-[(exo)-bicyclo[2.2.1]hept-2-yl]-N-[4-(3,6-dihydro-2H-pyran-4-yl)-1-oxophthalazin-2(1H)-yl]acetamide]
129%	455 nM	–	O=C(CC1CC2CCC1C2)Nn1nc(-c2cccnc2)c2ccccc2c1=O (racemic) [Example 8, (±)-2-[(exo)-bicyclo[2.2.1]hept-2-yl]-N-[1-oxo-4-(pyridin-3-yl)phthalazin-2(1H)-yl]acetamide]
137%	67.1 nM	–	O=C(CC1CC2CCC1C2)Nn1nc(-c2ccnc(Cl)c2)c2ccccc2c1=O (racemic) [Example 29, (±)-2-[(exo)-bicyclo[2.2.1]hept-2-yl]-N-[4-(2-chloropyridin-4-yl)-1-oxophthalazin-2(1H)-yl]acetamide]
122%	58.4 nM	–	O=C(CC1CC2CCC1C2)Nn1nc(Cc2ccc(Cl)nc2)c2ccccc2c1=O (racemic) [Example 30, (±)-2-[(exo)-bicyclo[2.2.1]hept-2-yl]-N-{4-[(6-chloropyridin-3-yl)methyl]-1-oxophthalazin-2(1H)-yl}acetamide]
161%	142 nM	–	O=C(CC1CC2CCC1C2)Nn1nc(NCc2ccccc2)c2ccccc2c1=O (racemic) [Example 34, (±)-N-[4-(benzylamino)-1-oxophthalazin-2(1H)-yl]-2-[(exo)-bicyclo[2.2.1]hept-2-yl]acetamide]
150%	9.05 nM	–	O=C(CC1CC2CCC1C2)Nn1nc(Oc2ccccc2)c2ccccc2c1=O (racemic) [Example 39, (±)-2-[(exo)-bicyclo[2.2.1]hept-2-yl]-N-(1-oxo-4-phenoxyphthalazin-2(1H)-yl)acetamide]
135%	31.1 nM	–	O=C(CC1CC2CCC1C2)Nn1nc(C(=O)c2ccccc2)c2ccccc2c1=O (racemic) [Example 40, (±)-N-(4-benzoyl-1-oxophthalazin-2(1H)-yl)-2-[(exo)-bicyclo[2.2.1]hept-2-yl]acetamide]
146%	381 nM	–	N#Cc1cc(-c2nn(NC(=O)CC3CC4CCC3C4)c(=O)c3ccccc23)ccn1 (racemic) [Example 45, (±)-2-[(exo)-bicyclo[2.2.1]hept-2-yl]-N-[4-(2-cyanopyridin-4-yl)-1-oxophthalazin-2(1H)-yl]acetamide]
151%	1130 nM	–	Cc1cc(-c2nn(NC(=O)CC3CC4CCC3C4)c(=O)c3ccccc23)ccn1 (racemic) [Example 50, (±)-2-[(exo)-bicyclo[2.2.1]hept-2-yl]-N-[4-(2-methylpyridin-4-yl)-1-oxophthalazin-2(1H)-yl]acetamide]
183%	408 nM	–	O=C(CC1CC2CCC1C2)Nn1nc(-c2ccc(F)nc2)c2ccccc2c1=O (racemic) [Example 54, (±)-2-[(exo)-bicyclo[2.2.1]hept-2-yl]-N-[4-(6-fluoropyridin-3-yl)-1-oxophthalazin-2(1H)-yl]acetamide]
149%	1370 nM	–	O=C(CC1CC2CCC1C2)Nn1nc(C(=O)O)c2ccccc2c1=O (racemic) [Example 55, (±)-3-{[(exo)-bicyclo[2.2.1]hept-2-ylacetyl]amino}-4-oxo-3,4-dihydrophthalazine-1-carboxylic acid]
192%	14.6 nM	–	O=C(CC1CC2CCC1C2)Nn1nc(Sc2ccccc2)c2ccccc2c1=O (racemic) [Example 59, (±)-2-[(exo)-bicyclo[2.2.1]hept-2-yl]-N-[1-oxo-4-(phenylsulfanyl)phthalazin-2(1H)-yl]acetamide]

Continued, molecule first:

SMILES	Emax (HEK293 KCNQ2/KCNQ3 cells)	EC50	% MAX (maximum response relative to the response of 10 μM retigabine (set at 100%), HEK293 KCNQ2/KCNQ3 cells)
O=C(CC1CC2CCC1C2)Nn1nc(-c2cccs2)c2ccccc2c1=O (racemic) [Example 12, (±)-2-[(exo)-bicyclo[2.2.1]hept-2-yl]-N-[1-oxo-4-(thiophen-2-yl)phthalazin-2(1H)-yl]acetamide]	136%	67.4 nM	–
Cc1ccsc1-c1nn(NC(=O)CC2CC3CCC2C3)c(=O)c2ccccc12 (racemic) [Example 16, (±)-2-[(exo)-bicyclo[2.2.1]hept-2-yl]-N-[4-(3-methylthiophen-2-yl)-1-oxophthalazin-2(1H)-yl]acetamide]	140%	116 nM	–
O=C(CC1CC2CCC1C2)Nn1nc(-c2ccccn2)c2ccccc2c1=O (racemic) [Example 19, (±)-2-[(exo)-bicyclo[2.2.1]hept-2-yl]-N-[1-oxo-4-(pyridin-2-yl)phthalazin-2(1H)-yl]acetamide]	146%	168 nM	–
O=C(CC1CC2CCC1C2)Nn1nc(N2CCCC2)c2ccccc2c1=O (racemic) [Example 23, (±)-2-[(exo)-bicyclo[2.2.1]hept-2-yl]-N-[1-oxo-4-(pyrrolidin-1-yl)phthalazin-2(1H)-yl]acetamide]	147%	62.8 nM	–
O=C(CC1CC2CCC1C2)Nn1nc(N2CCCCC2)c2ccccc2c1=O (racemic) [Example 25, (±)-2-[(exo)-bicyclo[2.2.1]hept-2-yl]-N-[1-oxo-4-(piperidin-1-yl)phthalazin-2(1H)-yl]acetamide]	144%	25.3 nM	–
COc1ccc(-c2nn(NC(=O)CC3CC4CCC3C4)c(=O)c3ccccc23)cn1 (racemic) [Example 26, (±)-2-[(exo)-bicyclo[2.2.1]hept-2-yl]-N-[4-(6-methoxypyridin-3-yl)-1-oxophthalazin-2(1H)-yl]acetamide]	137%	306 nM	–
O=C(CC1CC2CCC1C2)Nn1nc(C2CCOCC2)c2ccccc2c1=O (racemic) [Example 28, (±)-2-[(exo)-bicyclo[2.2.1]hept-2-yl]-N-[1-oxo-4-(tetrahydro-2H-pyran-4-yl)phthalazin-2(1H)-yl]acetamide]	145%	447 nM	–
O=C(CC1CC2CCC1C2)Nn1nc(Nc2cccc(Cl)c2)c2ccccc2c1=O (racemic) [Example 35, (±)-2-[(exo)-bicyclo[2.2.1]hept-2-yl]-N-{4-[(3-chlorophenyl)amino]-1-oxophthalazin-2(1H)-yl}acetamide]	11.4%	–	–
CN(Cc1ccccc1)c1nn(NC(=O)CC2CC3CCC2C3)c(=O)c2ccccc12 (racemic) [Example 37, (±)-N-{4-[benzyl(methyl)amino]-1-oxophthalazin-2(1H)-yl}-2-[(exo)-bicyclo[2.2.1]hept-2-yl]acetamide]	160%	42.3 nM	–
CC(C)(C)OC(=O)NCc1nn(NC(=O)CC2CC3CCC2C3)c(=O)c2ccccc12 (racemic) [Example 44, (±)-tert-butyl[(3-{[(exo)-bicyclo[2.2.1]hept-2-ylacetyl]amino}-4-oxo-3,4-dihydrophthalazin-1-yl)methyl]carbamate]	116%	294 nM	–
O=C(CC1CC2CCC1C2)Nn1nc(-c2ccnc(O)c2)c2ccccc2c1=O (racemic) [Example 46, (±)-2-[(exo)-bicyclo[2.2.1]hept-2-yl]-N-[4-(2-hydroxypyridin-4-yl)-1-oxophthalazin-2(1H)-yl]acetamide]	13.4%	–	–
CN(C)c1ccc(-c2nn(NC(=O)CC3CC4CCC3C4)c(=O)c3ccccc23)cn1 (racemic) [Example 47, (±)-2-[(exo)-bicyclo[2.2.1]hept-2-yl]-N-{4-[6-(dimethylamino)pyridin-3-yl]-1-oxophthalazin-2(1H)-yl}acetamide]	122%	378 nM	–
CCOC(=O)c1nn(NC(=O)CC2CC3CCC2C3)c(=O)c2ccccc12 (racemic) [Example 51, (±)-ethyl 3-{[(exo)-bicyclo[2.2.1]hept-2-ylacetyl]amino}-4-oxo-3,4-dihydrophthalazine-1-carboxylate]	171%	275 nM	–
CN(C)C(=O)c1nn(NC(=O)CC2CC3CCC2C3)c(=O)c2ccccc12 (racemic) [Example 56, (±)-3-{[(exo)-bicyclo[2.2.1]hept-2-ylacetyl]amino}-N,N-dimethyl-4-oxo-3,4-dihydrophthalazine-1-carboxamide]	84.9%	–	–
CC1CN(c2nn(NC(=O)CC3CC4CCC3C4)c(=O)c3ccccc23)CC(C)O1 (racemic) [Example 64, (±)-2-[(exo)-bicyclo[2.2.1]hept-2-yl]-N-[4-(2,6-dimethylmorpholin-4-yl)-1-oxophthalazin-2(1H)-yl]acetamide]	–	90.9 nM	144%
